Results as given in ChEMBL document CHEMBL1201862, “PubChem BioAssay data set” (2004).
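Cultured in 96-well plates, cells were exposed to test compound for 48 hours across five concentrations. Abbreviation: GI50, concentration required for 50% inhibition of growth.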 Calls of active or inactive are those of the source. No stated cut-off is given here; in the data, active = GI50 up to about 1.1 µM and inactive = higher.

Key:
Assay in all cases: NCI tumour cell line growth inhibition, 48 h
TK-10 = test system: TK-10
SR = test system: SR
IGROV-1 = test system: IGROV-1
LOX IMVI = test system: LOX IMVI
M14 = test system: M14
SK-MEL-5 = test system: SK-MEL-5
K562 = test system: K562
HCT-116 = test system: HCT-116
PC-3 = test system: PC-3
Hs-578T = test system: Hs-578T
ACHN = test system: ACHN
HOP-62 = test system: HOP-62
OVCAR-3 = test system: OVCAR-3
SN12C = test system: SN12C
SW-620 = test system: SW-620
NCI-H23 = test system: NCI-H23
HCC 2998 = test system: HCC 2998
SNB-75 = test system: SNB-75
SK-OV-3 = test system: SK-OV-3
COLO 205 = test system: COLO 205

| SMILES | GI50 (TK-10) | GI50 (SR) | GI50 (IGROV-1) | GI50 (LOX IMVI) | GI50 (M14) | GI50 (SK-MEL-5) | GI50 (K562) | GI50 (HCT-116) | GI50 (PC-3) | GI50 (Hs-578T) | GI50 (ACHN) | GI50 (HOP-62) | GI50 (OVCAR-3) | GI50 (SN12C) | GI50 (SW-620) | GI50 (NCI-H23) | GI50 (HCC 2998) | GI50 (SNB-75) | GI50 (SK-OV-3) | GI50 (COLO 205) |
| --- | --- | --- | --- | --- | --- | --- | --- | --- | --- | --- | --- | --- | --- | --- | --- | --- | --- | --- | --- | --- |
| C=C(C)CNCCN | > 100 µM (inactive) | > 100 µM (inactive) | > 100 µM (inactive) | > 100 µM (inactive) | > 100 µM (inactive) | > 100 µM (inactive) | > 100 µM (inactive) | > 100 µM (inactive) | > 100 µM (inactive) | > 100 µM (inactive) | > 100 µM (inactive) | > 100 µM (inactive) | > 100 µM (inactive) | > 100 µM (inactive) | > 100 µM (inactive) | > 100 µM (inactive) |  |  |  |  |
| CC(CN(C)C)C(C#N)(c1ccccc1)c1ccccc1 (stereo unspecified) | > 100 µM (inactive) |  | > 100 µM (inactive) | > 100 µM (inactive) | > 100 µM (inactive) | > 100 µM (inactive) | 65.2 µM (inactive) | > 100 µM (inactive) | 47.6 µM (inactive) | > 100 µM (inactive) | > 100 µM (inactive) | > 100 µM (inactive) | > 100 µM (inactive) | > 100 µM (inactive) | > 100 µM (inactive) | > 100 µM (inactive) | 43.8 µM (inactive) | > 100 µM (inactive) | > 100 µM (inactive) | 82.6 µM (inactive) |
| Nc1nc2c(ncn2CC2CCC(CO)C2)c(=O)[nH]1 (stereo unspecified) | > 100 µM (inactive) |  |  | > 100 µM (inactive) | > 100 µM (inactive) | > 100 µM (inactive) | > 100 µM (inactive) | > 100 µM (inactive) | > 100 µM (inactive) | > 100 µM (inactive) | > 100 µM (inactive) | > 100 µM (inactive) | > 100 µM (inactive) | > 100 µM (inactive) | > 100 µM (inactive) |  | > 100 µM (inactive) | > 100 µM (inactive) | > 100 µM (inactive) | > 100 µM (inactive) |
| COc1cc(NS(C)(=O)=O)ccc1N1Cc2c[nH]c3ccc4nccc1c4c23 | 39.8 µM (inactive) |  | 36.3 µM (inactive) | 18.2 µM (inactive) | 42.4 µM (inactive) | 23.4 µM (inactive) | 22.5 µM (inactive) | 26.6 µM (inactive) | 29.6 µM (inactive) | 31.1 µM (inactive) | > 100 µM (inactive) | 54.2 µM (inactive) | 33.7 µM (inactive) | 20.2 µM (inactive) | 32.1 µM (inactive) | 39.1 µM (inactive) |  |  |  | 26.7 µM (inactive) |
| CCOP(=O)(C[S+](C)[O-])O[C@@H]1C[C@H](C)CC[C@H]1C(C)C (stereo partly specified) | 3.63 µM (inactive) | 3.07 µM (inactive) | 3.25 µM (inactive) | 1.77 µM (inactive) | 8.3 µM (inactive) | 2.25 µM (inactive) | 3.4 µM (inactive) | 2.75 µM (inactive) | 6.61 µM (inactive) | 3.26 µM (inactive) | 4.43 µM (inactive) | 5.53 µM (inactive) | 4.44 µM (inactive) | 0.434 µM (active) | 3.72 µM (inactive) | 4.13 µM (inactive) |  | 7.28 µM (inactive) | 6.95 µM (inactive) | 6.19 µM (inactive) |
| COC(=O)C1CC(C=O)=C(SC)N1 (stereo unspecified) | > 50 µM (inactive) |  | > 50 µM (inactive) |  | > 50 µM (inactive) | > 50 µM (inactive) | > 50 µM (inactive) | > 50 µM (inactive) | > 50 µM (inactive) | > 50 µM (inactive) | > 50 µM (inactive) | > 50 µM (inactive) | > 50 µM (inactive) |  | > 50 µM (inactive) | > 50 µM (inactive) | > 50 µM (inactive) | > 50 µM (inactive) | > 50 µM (inactive) | > 50 µM (inactive) |
| Cc1ccc(-n2nnc(C#N)c2O)cc1 | > 100 µM (inactive) |  | > 100 µM (inactive) |  | > 100 µM (inactive) | > 100 µM (inactive) | > 100 µM (inactive) | > 100 µM (inactive) | > 100 µM (inactive) | > 100 µM (inactive) | > 100 µM (inactive) | > 100 µM (inactive) | > 100 µM (inactive) | > 100 µM (inactive) | > 100 µM (inactive) | > 100 µM (inactive) | > 100 µM (inactive) | > 100 µM (inactive) | > 100 µM (inactive) | > 100 µM (inactive) |
| CC(C)(C)/C(O)=C\c1nc2cc(C(F)(F)F)ccc2[nH]c1=O | > 100 µM (inactive) | > 10 µM (inactive) | > 100 µM (inactive) | > 100 µM (inactive) | > 100 µM (inactive) | > 100 µM (inactive) | 27.9 µM (inactive) | > 100 µM (inactive) | > 100 µM (inactive) | > 100 µM (inactive) | > 100 µM (inactive) | > 100 µM (inactive) | > 100 µM (inactive) | > 100 µM (inactive) | > 100 µM (inactive) | > 100 µM (inactive) |  | > 100 µM (inactive) | > 100 µM (inactive) | > 100 µM (inactive) |
